Measurements taken from PubChem BioAssay (NCI).
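Interpolation was linear, between the two tested concentrations surrounding the appropriate level; five concentrations were tested over 48 hours in 96-well plates. TGI: total growth inhibition.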

Columns and labels:
Assay in all cases: NCI tumour cell line growth inhibition, 48 h
[1] = tested on: OVCAR-4 ovarian
[2] = tested on: SK-MEL-2 melanoma
[3] = tested on: NCI/ADR-RES ovarian
[4] = tested on: M14 melanoma
[5] = tested on: HCT-116 colon
[6] = tested on: OVCAR-5 ovarian
[7] = tested on: SK-OV-3 ovarian
[8] = tested on: CAKI-1 renal
[9] = tested on: HL-60(TB) leukemia
[10] = tested on: MDA-MB-435
[11] = tested on: SF-268 CNS
[12] = tested on: OVCAR-3 ovarian
[13] = tested on: K-562 leukemia
[14] = tested on: HCC-2998 colon
[15] = tested on: MDA-N
[16] = tested on: HS 578T breast
[17] = tested on: DU-145 prostate
[18] = tested on: SK-MEL-28 melanoma
[19] = tested on: SN12C renal
[20] = tested on: PC-3 prostate
[21] = tested on: MDA-MB-231 breast
[22] = tested on: HOP-62 NSCLC
[23] = tested on: HT29 colon
[24] = tested on: RPMI-8226 leukemia
[25] = tested on: HOP-92 NSCLC
[26] = tested on: CCRF-CEM leukemia
[27] = tested on: RXF 393 renal
[28] = tested on: A498 renal
[29] = tested on: TK-10 renal
[30] = tested on: SK-MEL-5 melanoma
[31] = tested on: 786-0 renal
[32] = tested on: T-47D breast
[33] = tested on: UACC-257 melanoma
[34] = tested on: A549 NSCLC
[35] = tested on: UACC-62 melanoma
[36] = tested on: IGROV1 ovarian
[37] = tested on: LOX IMVI melanoma
[38] = tested on: U251 CNS
[39] = tested on: MCF7 breast
[40] = tested on: MALME-3M melanoma
[41] = tested on: ACHN renal
[42] = tested on: COLO 205 colon
[43] = tested on: SF-295 CNS
[44] = tested on: SW-620 colon
[45] = tested on: KM12 colon
[46] = tested on: NCI-H23 lung
[47] = tested on: SNB-75 CNS
[48] = tested on: BT-549 breast
[49] = tested on: OVCAR-8 ovarian
[50] = tested on: HCT-15 colon
[51] = tested on: NCI-H226 lung
[52] = tested on: SNB-19 CNS
[53] = tested on: MOLT-4 leukemia
[54] = tested on: NCI-H460 lung
[55] = tested on: NCI-H522 lung
[56] = tested on: UO-31 renal
[57] = tested on: SF-539 CNS
[58] = tested on: EKVX NSCLC

How did the TGI [1] turn out when `CCCC(Sc1nc(N)nc2nc[nH]c12)C(=O)O` (configuration not stated) was run?
The TGI was > 100 µM.

What about the TGI [2] of the same compound?
Its TGI is > 100 µM.

And the TGI [3]?
The TGI was > 100 µM.

What about the TGI [4] of the same compound?
Its TGI is > 100 µM.

What about the TGI [5] of the same compound?
The TGI was > 100 µM.

And the TGI [6]?
The TGI was > 100 µM.

And the TGI [7]?
The TGI was > 100 µM.

What about the TGI [8] of the same compound?
Its TGI is > 100 µM.

What about the TGI [9] of the same compound?
The TGI was > 100 µM.

And the TGI [10]?
Its TGI is > 100 µM.

And the TGI [11]?
Its TGI is > 100 µM.

What about the TGI [12] of the same compound?
Its TGI is > 100 µM.

What about the TGI [13] of the same compound?
The TGI was > 100 µM.

What about the TGI [14] of the same compound?
Its TGI is 76.9 µM.

What about the TGI [15] of the same compound?
The TGI was > 100 µM.

And the TGI [16]?
Its TGI is > 100 µM.

And the TGI [17]?
Its TGI is > 100 µM.

What about the TGI [18] of the same compound?
The TGI was > 100 µM.

And the TGI [19]?
Its TGI is > 100 µM.

What about the TGI [20] of the same compound?
The TGI was > 100 µM.

What about the TGI [21] of the same compound?
Its TGI is > 100 µM.

And the TGI [22]?
Its TGI is > 100 µM.

And the TGI [23]?
The TGI was > 100 µM.

And the TGI [24]?
The TGI was > 100 µM.

And the TGI [25]?
The TGI was > 100 µM.

What about the TGI [26] of the same compound?
Its TGI is > 100 µM.

What about the TGI [27] of the same compound?
The TGI was > 100 µM.

What about the TGI [28] of the same compound?
Its TGI is > 100 µM.

What about the TGI [29] of the same compound?
The TGI was 88 µM.

What about the TGI [30] of the same compound?
Its TGI is > 100 µM.

And the TGI [31]?
The TGI was > 100 µM.

And the TGI [32]?
The TGI was > 100 µM.

What about the TGI [33] of the same compound?
Its TGI is > 100 µM.

And the TGI [34]?
The TGI was > 100 µM.

And the TGI [35]?
Its TGI is > 100 µM.

What about the TGI [36] of the same compound?
Its TGI is > 100 µM.

What about the TGI [37] of the same compound?
Its TGI is > 100 µM.

What about the TGI [38] of the same compound?
The TGI was > 100 µM.

What about the TGI [39] of the same compound?
The TGI was > 100 µM.

And the TGI [40]?
Its TGI is > 100 µM.

And the TGI [41]?
The TGI was > 100 µM.

What about the TGI [42] of the same compound?
Its TGI is > 100 µM.

And the TGI [43]?
The TGI was > 100 µM.

What about the TGI [44] of the same compound?
The TGI was > 100 µM.

And the TGI [45]?
Its TGI is > 100 µM.

And the TGI [46]?
The TGI was > 100 µM.

What about the TGI [47] of the same compound?
The TGI was > 100 µM.

What about the TGI [48] of the same compound?
The TGI was > 100 µM.

And the TGI [49]?
Its TGI is > 100 µM.

And the TGI [50]?
The TGI was > 100 µM.

What about the TGI [51] of the same compound?
Its TGI is > 100 µM.

What about the TGI [52] of the same compound?
The TGI was > 100 µM.

And the TGI [53]?
The TGI was > 100 µM.

And the TGI [54]?
Its TGI is > 100 µM.

And the TGI [55]?
The TGI was > 100 µM.

And the TGI [56]?
The TGI was > 100 µM.

With `COc1ccc(-c2oc3ccc(C)cc3c(=O)c2O)cc1` as the compound, how does the TGI [1] read?
The TGI was > 100 µM.

And the TGI [57]?
Its TGI is > 100 µM.

What about the TGI [2] of the same compound?
The TGI was > 100 µM.

And the TGI [3]?
The TGI was > 100 µM.

And the TGI [4]?
The TGI was > 100 µM.

What about the TGI [5] of the same compound?
The TGI was > 100 µM.

What about the TGI [6] of the same compound?
The TGI was > 100 µM.

And the TGI [7]?
The TGI was > 100 µM.

And the TGI [8]?
Its TGI is > 100 µM.

What about the TGI [9] of the same compound?
Its TGI is > 100 µM.

And the TGI [10]?
Its TGI is > 100 µM.

And the TGI [11]?
Its TGI is > 100 µM.

What about the TGI [12] of the same compound?
The TGI was > 100 µM.

And the TGI [14]?
The TGI was > 100 µM.

And the TGI [15]?
Its TGI is > 100 µM.

And the TGI [16]?
The TGI was > 100 µM.

And the TGI [17]?
The TGI was > 100 µM.

What about the TGI [18] of the same compound?
Its TGI is > 100 µM.

What about the TGI [19] of the same compound?
Its TGI is > 100 µM.

And the TGI [20]?
Its TGI is > 100 µM.

And the TGI [21]?
Its TGI is > 100 µM.

And the TGI [22]?
The TGI was > 100 µM.

And the TGI [23]?
Its TGI is > 100 µM.

And the TGI [24]?
The TGI was > 100 µM.

And the TGI [25]?
Its TGI is > 100 µM.

And the TGI [26]?
Its TGI is > 100 µM.

And the TGI [27]?
Its TGI is > 100 µM.

And the TGI [28]?
Its TGI is > 100 µM.

And the TGI [29]?
Its TGI is > 100 µM.

And the TGI [30]?
Its TGI is > 100 µM.

And the TGI [31]?
Its TGI is > 100 µM.

And the TGI [32]?
Its TGI is > 100 µM.

What about the TGI [33] of the same compound?
Its TGI is > 100 µM.

What about the TGI [34] of the same compound?
The TGI was > 100 µM.

What about the TGI [35] of the same compound?
The TGI was > 100 µM.

What about the TGI [36] of the same compound?
Its TGI is > 100 µM.

What about the TGI [37] of the same compound?
The TGI was > 100 µM.

And the TGI [38]?
Its TGI is > 100 µM.

What about the TGI [39] of the same compound?
Its TGI is > 100 µM.

And the TGI [40]?
Its TGI is > 100 µM.

And the TGI [41]?
The TGI was > 100 µM.

What about the TGI [58] of the same compound?
The TGI was > 100 µM.

What about the TGI [42] of the same compound?
Its TGI is > 100 µM.

And the TGI [43]?
Its TGI is > 100 µM.

And the TGI [44]?
The TGI was > 100 µM.

And the TGI [45]?
Its TGI is > 100 µM.

And the TGI [46]?
The TGI was > 100 µM.

What about the TGI [47] of the same compound?
Its TGI is > 100 µM.

And the TGI [48]?
Its TGI is > 100 µM.

What about the TGI [49] of the same compound?
Its TGI is 79.3 µM.

And the TGI [50]?
The TGI was > 100 µM.

What about the TGI [51] of the same compound?
The TGI was > 100 µM.

And the TGI [52]?
Its TGI is > 100 µM.

What about the TGI [53] of the same compound?
The TGI was > 100 µM.

What about the TGI [55] of the same compound?
Its TGI is > 100 µM.

What about the TGI [56] of the same compound?
The TGI was > 100 µM.
